The IC50 is the midpoint of a concentration-inhibition curve. A low value points to inhibition by little substance.

In the experiment the target is T1, human TRPM8 (Homo sapiens, UniProt Q7Z2W7).
T1 construct: expressed in transfected cells
T1 sequence (Q7Z2W7 whole entry): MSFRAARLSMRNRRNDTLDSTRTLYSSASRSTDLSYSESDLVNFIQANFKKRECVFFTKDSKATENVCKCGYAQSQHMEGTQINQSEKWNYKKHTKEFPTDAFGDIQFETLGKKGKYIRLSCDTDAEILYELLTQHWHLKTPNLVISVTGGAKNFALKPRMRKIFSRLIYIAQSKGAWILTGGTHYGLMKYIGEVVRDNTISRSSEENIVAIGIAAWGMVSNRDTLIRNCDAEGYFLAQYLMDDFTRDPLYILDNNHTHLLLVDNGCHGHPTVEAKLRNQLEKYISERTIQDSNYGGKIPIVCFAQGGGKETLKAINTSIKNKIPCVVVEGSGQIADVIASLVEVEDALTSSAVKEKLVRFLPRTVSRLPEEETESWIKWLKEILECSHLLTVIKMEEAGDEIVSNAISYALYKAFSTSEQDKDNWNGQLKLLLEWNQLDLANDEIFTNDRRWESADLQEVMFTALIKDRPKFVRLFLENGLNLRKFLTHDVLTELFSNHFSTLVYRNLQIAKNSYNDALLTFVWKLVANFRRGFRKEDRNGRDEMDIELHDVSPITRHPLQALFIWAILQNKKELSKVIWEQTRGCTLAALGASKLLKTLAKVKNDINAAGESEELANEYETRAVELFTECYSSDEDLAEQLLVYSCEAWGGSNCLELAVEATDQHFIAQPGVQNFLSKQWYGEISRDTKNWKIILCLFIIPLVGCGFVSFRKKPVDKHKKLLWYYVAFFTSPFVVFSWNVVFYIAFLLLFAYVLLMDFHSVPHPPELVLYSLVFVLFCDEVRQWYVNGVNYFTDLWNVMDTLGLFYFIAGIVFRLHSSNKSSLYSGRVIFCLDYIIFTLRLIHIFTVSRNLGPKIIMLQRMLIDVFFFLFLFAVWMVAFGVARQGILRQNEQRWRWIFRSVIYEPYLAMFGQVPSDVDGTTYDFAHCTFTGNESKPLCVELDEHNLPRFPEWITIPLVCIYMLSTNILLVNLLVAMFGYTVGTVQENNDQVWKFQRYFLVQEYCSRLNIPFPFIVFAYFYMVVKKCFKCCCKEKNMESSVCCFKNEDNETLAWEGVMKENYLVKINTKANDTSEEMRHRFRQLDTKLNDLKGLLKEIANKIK
Kind of experiment: In Vitro human TRPM8 Functional Assay (intracellular Ca2+, Fluo4, FDSS, menthol activation). To be noted: HEK293 cells stably expressing human TRPM8; activation with L-(-)-Menthol; 11-point dose-response. In kind it is cell-based. As to the method: In Vitro human TRPM8 Functional Assay
The functional activity of compounds was determined by measuring changes in intracellular calcium concentration using a Ca^2+-sensitive fluorescent dye, Fluo4 (Molecular Probes). The changes in fluorescent signal were monitored by the cell imaging technology by Hamamatsu Photonics's Functional Drug Screening System (FDSS).
HEK293 cells stably expressing human TRPM8 were grown in T175 flasks, in a 5% CO2 humidified incubator to about 80% confluence. Media composition consisted of Dulbecco's Modified Eagle Medium (high glucose), 10% fetal calf serum (FCS), 100 units/ml Penicillin, 100 microg/ml Streptomycin and 600 microg/ml Geneticine.
1. Plate-out HEK293-TRPM8 cells (40 microL medium containing 30,000 cells per well) into poly-D-lysine coated 384-well plates (BD FALCON) at 24 hours prior to assay.
1. […] 2. […] 3. Place the plate at room temperature in dark for 1 hour. 4. […] 5. Add 20 microL of compound solutions into each well and leave the plate for 5 minutes under the dark at room temperature. 6. Measure activity by FDSS as follows: • Set the assay plate on the stacker of FDSS • Start the detection of fluorescence intensity • After 30 sec, add 20 microL of 90 microM L-(−)-Menthol
IC50 values for compounds of the present invention were determined from 11-point dose-response studies. Curves were generated using the average of duplicate wells for each data point. Finally, the IC50 values are calculated with the best-fit dose curve determined by XLfit (ID Business Solutions Ltd.).
With `O=C(O)c1ccc(S(=O)(=O)N(Cc2ccc(F)c(Cl)c2)c2ncc(Cl)cc2Cl)cc1` [Example 69, 4-(N-(3-Chloro-4-fluorobenzyl)-N-(3,5-dichloropyridin-2-yl)sulfamoyl)benzoic acid], the concentration for half-maximal inhibition (IC50) was below 1 µM.
For `Cc1cc(Cl)cnc1N(Cc1ccc(Cl)cc1C(F)(F)F)S(=O)(=O)c1ccc(C(=O)O)cc1` [Example 75, 4-(N-(4-Chloro-2-(trifluoromethyl)benzyl)-N-(5-chloro-3-methylpyridin-2-yl)sulfamoyl)benzoic acid] the value was below 1 µM; for `COc1ccc(N(Cc2ccccc2)S(=O)(=O)c2cc(C(=O)O)ccc2Cl)cc1` [Example 124, 3-(N-Benzyl-N-(4-methoxyphenyl)sulfamoyl)-4-chlorobenzoic acid], 1 to 10 µM.
Consider `Cc1cc(Cl)cnc1N(Cc1ccc(F)c(C(F)(F)F)c1)S(=O)(=O)c1ccc(C(=O)O)cc1` [Example 76, 4-(N-(5-Chloro-3-methylpyridin-2-yl)-N-(4-fluoro-3-(trifluoromethyl)benzyl)sulfamoyl)benzoic acid], for which the 50% inhibitory concentration (IC50) was below 1 µM.
For `O=C(O)c1ccc(S(=O)(=O)N(Cc2ccsc2)c2ncc(C(F)(F)F)cc2Cl)cc1` [Example 172, 4-(N-(3-Chloro-5-(trifluoromethyl)pyridin-2-yl)-N-(thiophen-3-ylmethyl)sulfamoyl)benzoic acid] the value was below 1 µM; for `O=C(O)c1ccc(S(=O)(=O)N(Cc2ccccc2)c2ncc(C(F)(F)F)cc2Cl)cc1` [Example 1, 4-(N-Benzyl-N-(3-chloro-5-(trifluoromethyl)pyridin-2-yl)sulfamoyl)benzoic acid], below 1 µM.
For `O=C(O)c1ccc(S(=O)(=O)N(Cc2ccc(OCC(F)(F)F)cc2)c2ncc(C(F)(F)F)cc2Cl)cc1` [Example 41] the value was below 1 µM; for `O=C(O)c1ccc(S(=O)(=O)N(Cc2ccccc2)c2ncc(C(F)(F)F)cc2C2CC2)cc1` [Example 149, 4-(N-Benzyl-N-(3-cyclopropyl-5-(trifluoromethyl)pyridin-2-yl)sulfamoyl)benzoic acid], below 1 µM; for `O=C(O)c1ccc(S(=O)(=O)N(Cc2cc(F)ccc2F)c2ncc(C(F)(F)F)cc2Cl)cc1` [Example 46, 4-(N-(3-Chloro-5-(trifluoromethyl)pyridin-2-yl)-N-(2,5-difluorobenzyl)sulfamoyl)benzoic acid], below 1 µM.
Then `O=C(O)c1ccc(S(=O)(=O)N(Cc2ccc(OC(F)(F)F)cc2)c2ncc(Cl)cc2Cl)cc1` [Example 63, 4-(N-(3,5-Dichloropyridin-2-yl)-N-(4-(trifluoromethoxy)benzyl)sulfamoyl)benzoic acid], with below 1 µM.
For `COc1ccc(S(=O)(=O)N(Cc2ccccc2)c2ncc(C(F)(F)F)cc2Cl)cn1` [Example 189, N-Benzyl-N-(3-chloro-5-(trifluoromethyl)pyridin-2-yl)-6-methoxypyridine-3-sulfonamide], the 50% inhibitory concentration (IC50) was below 1 µM.
Consider `O=C(O)c1ccc(S(=O)(=O)N(Cc2ccc(F)cc2Cl)c2ncc(C(F)(F)F)cc2Cl)cc1` [Example 40, 4-(N-(2-Chloro-4-fluorobenzyl)-N-(3-chloro-5-(trifluoromethyl)pyridin-2-yl)sulfamoyl)benzoic acid], for which the half-maximal inhibitory concentration (IC50) is below 1 µM.
For `O=C(O)c1ccc(Cl)c(S(=O)(=O)N(Cc2ccccc2)c2ccc(Cl)cc2)c1` [Example 110, 3-(N-Benzyl-N-(4-chlorophenyl)sulfamoyl)-4-chlorobenzoic acid], the IC50 is 1 to 10 µM.
For `COc1ccc(N(Cc2ccccc2)S(=O)(=O)c2ccc(Cl)c(C(=O)O)c2)cc1` [Example 119, 5-(N-Benzyl-N-(4-methoxyphenyl)sulfamoyl)-2-chlorobenzoic acid] the value was 10 to 30 µM; for `O=C(O)c1ccc(S(=O)(=O)N(Cc2noc(-c3ccccc3)n2)c2ncc(C(F)(F)F)cc2Cl)cc1` [Example 199, 4-(N-(3-Chloro-5-(trifluoromethyl)pyridin-2-yl)-N-((5-phenyl-1,2,4-oxadiazol-3-yl)methyl)sulfamoyl)benzoic acid], below 1 µM.
`COc1cccc(N(C(C)c2cc(OC)ccc2OC)S(=O)(=O)c2ccccc2F)c1` (stereo not shown) [Example 90, N-(1-(2,5-Dimethoxyphenyl)ethyl)-2-fluoro-N-(3-methoxyphenyl)benzene-sulfonamide] yielded a concentration for half-maximal inhibition (IC50) of 1 to 10 µM.
Consider `O=C(O)c1ccc(S(=O)(=O)N(Cc2ccccc2)c2ncc(-c3ccco3)cc2Cl)cc1` [Example 183, 4-(N-Benzyl-N-(3-chloro-5-(furan-2-yl)pyridin-2-yl)sulfamoyl)benzoic acid], for which the IC50 was below 1 µM.
For `O=C(O)c1cccc(S(=O)(=O)N(Cc2ccccc2)c2ccccc2Cl)c1` [Example 112, 3-(N-Benzyl-N-(2-chlorophenyl)sulfamoyl) benzoic acid] the value was 10 to 30 µM; for `O=C(O)c1cc(S(=O)(=O)N(Cc2ccccc2)c2ccccc2)ccc1Cl` [Example 117, 5-(N-Benzyl-N-phenylsulfamoyl)-2-chlorobenzoic acid], 10 to 30 µM.
Turning to `Cc1ccc(CN(c2ncc(Cl)cc2Cl)S(=O)(=O)c2ccc(C(=O)O)cc2)cc1F` [Example 67, 4-(N-(3,5-Dichloropyridin-2-yl)-N-(3-fluoro-4-methylbenzyl)sulfamoyl)benzoic acid], the IC50 is below 1 µM.
For `NC(=O)Nc1ccc(S(=O)(=O)N(Cc2ccccc2)c2ncc(C(F)(F)F)cc2Cl)cc1` [Example 195, N-Benzyl-N-(3-chloro-5-(trifluoromethyl)pyridin-2-yl)-4-ureidobenzenesulfonamide] the value was below 1 µM; for `O=C(O)c1ccc(S(=O)(=O)N(Cc2ccccc2F)c2ncc(C(F)(F)F)cc2Cl)cc1` [Example 20, 4-(N-(3-Chloro-5-(trifluoromethyl)pyridin-2-yl)-N-(2-fluorobenzyl)sulfamoyl)benzoic acid], below 1 µM; for `COc1cccc(N(CC(=O)N2CCN(Cc3ccccc3)CC2)S(=O)(=O)c2ccccc2)c1` [Example 84, N-(2-(4-Benzylpiperazin-1-yl)-2-oxoethyl)-N-(3-methoxyphenyl)benzene-sulfonamide], 1 to 10 µM.
In turn, `O=C(O)c1ccc(S(=O)(=O)N(CC2CCN(c3ccccn3)CC2)c2ncc(C(F)(F)F)cc2Cl)cc1` [Example 142, 4-(N-(3-Chloro-5-(trifluoromethyl)pyridin-2-yl)-N-((1-(pyridin-2-yl)piperidin-4-yl)methyl)sulfamoyl)benzoic acid] gave a concentration for half-maximal inhibition (IC50) below 1 µM.
Then `O=S(=O)(c1cc(Cl)ccc1Cl)N(Cc1ccccc1)c1ccccn1` [Example 109, N-Benzyl-2,5-dichloro-N-(pyridin-2-yl)benzene sulfonamide], with 1 to 10 µM.
Then `O=C(O)c1ccc(S(=O)(=O)N(CCN2CCOCC2)c2ncc(C(F)(F)F)cc2Cl)cc1` [Example 57, 4-(N-(3-Chloro-5-(trifluoromethyl)pyridin-2-yl)-N-(2-morpholinoethyl)sulfamoyl)benzoic acid], with 1 to 10 µM.
For `COc1cccc(C(C)N(c2cccc(Cl)c2)S(=O)(=O)c2ccc(F)cc2C)c1` (stereo not shown) [Example 139, N-(3-Chlorophenyl)-4-fluoro-N-(1-(3-methoxy-phenyl)ethyl)-2-methyl-benzenesulfonamide], the concentration for half-maximal inhibition (IC50) fell in the range of 1 to 10 µM.
Molecule `O=C(O)c1ccc(S(=O)(=O)N(Cc2cccc(C(F)(F)F)c2)c2ncc(C(F)(F)F)cc2Cl)cc1` [Example 23, 4-(N-(3-Chloro-5-(trifluoromethyl)pyridin-2-yl)-N-(3-(trifluoromethyl)benzyl)sulfamoyl)benzoic acid] registered an IC50 below 1 µM.
For `O=C(O)c1ccc(S(=O)(=O)N(Cc2ccc(OC(F)(F)F)cc2)c2ncc(C(F)(F)F)cc2Cl)cc1` [Example 15, 4-(N-(3-Chloro-5-(trifluoromethyl)pyridin-2-yl)-N-(4-(trifluoromethoxy)benzyl)sulfamoyl)benzoic acid] the value was below 1 µM; for `CCOc1ccccc1N(Cc1ccc(Cl)cc1)S(=O)(=O)c1cccc(C(=O)O)c1` [Example 125, 3-(N-(4-Chlorobenzyl)-N-(2-ethoxyphenyl)sulfamoyl) benzoic acid], 1 to 10 µM.
In the case of `Cc1cc(C(=O)O)ccc1S(=O)(=O)N(Cc1ccccc1)c1ncc(C(F)(F)F)cc1Cl` [Example 145, 4-(N-Benzyl-N-(3-chloro-5-(trifluoromethyl)pyridin-2-yl)sulfamoyl)-3-methylbenzoic acid], the half-maximal inhibitory concentration (IC50) is below 1 µM.
For `Cc1ccc(-c2ccc(CN(c3ncc(C(F)(F)F)cc3Cl)S(=O)(=O)c3ccc(C(=O)O)cc3)cc2)cn1` [Example 163, 4-(N-(3-chloro-5-(trifluoromethyl)pyridin-2-yl)-N-(4-(6-methylpyridin-3-yl)benzyl)sulfamoyl)benzoic acid] the value was below 1 µM.
Then `CC(=O)NCc1ccc(S(=O)(=O)N(Cc2ccccc2)c2ncc(C(F)(F)F)cc2Cl)cc1` [Example 177, N-(4-(N-Benzyl-N-(3-chloro-5-(trifluoromethyl)pyridin-2-yl)sulfamoyl)benzyl)acetamide], with below 1 µM; and `O=C(O)c1ccc(S(=O)(=O)N(CCOc2ccc(F)cc2)c2ncc(C(F)(F)F)cc2Cl)cc1` [Example 30, 4-(N-(3-Chloro-5-(trifluoromethyl)pyridin-2-yl)-N-(2-(4-fluorophenoxy)ethyl)sulfamoyl)benzoic acid], with below 1 µM.

The record behind these values is US20120094964A1, “SULFAMOYL BENZOIC ACID DERIVATIVES AS TRPM8 ANTAGONISTS” (priority 2009, published 2012).
